BindingDB's records for patent US20240034743 (Qilu Pharmaceutical, 2024)
pIC50: −log10 of the molar value.

target: Epidermal growth factor receptor (Homo sapiens, UniProt P00533); experiment: Not found
Source text: Not found

Sequence of Epidermal growth factor receptor (P00533 whole entry): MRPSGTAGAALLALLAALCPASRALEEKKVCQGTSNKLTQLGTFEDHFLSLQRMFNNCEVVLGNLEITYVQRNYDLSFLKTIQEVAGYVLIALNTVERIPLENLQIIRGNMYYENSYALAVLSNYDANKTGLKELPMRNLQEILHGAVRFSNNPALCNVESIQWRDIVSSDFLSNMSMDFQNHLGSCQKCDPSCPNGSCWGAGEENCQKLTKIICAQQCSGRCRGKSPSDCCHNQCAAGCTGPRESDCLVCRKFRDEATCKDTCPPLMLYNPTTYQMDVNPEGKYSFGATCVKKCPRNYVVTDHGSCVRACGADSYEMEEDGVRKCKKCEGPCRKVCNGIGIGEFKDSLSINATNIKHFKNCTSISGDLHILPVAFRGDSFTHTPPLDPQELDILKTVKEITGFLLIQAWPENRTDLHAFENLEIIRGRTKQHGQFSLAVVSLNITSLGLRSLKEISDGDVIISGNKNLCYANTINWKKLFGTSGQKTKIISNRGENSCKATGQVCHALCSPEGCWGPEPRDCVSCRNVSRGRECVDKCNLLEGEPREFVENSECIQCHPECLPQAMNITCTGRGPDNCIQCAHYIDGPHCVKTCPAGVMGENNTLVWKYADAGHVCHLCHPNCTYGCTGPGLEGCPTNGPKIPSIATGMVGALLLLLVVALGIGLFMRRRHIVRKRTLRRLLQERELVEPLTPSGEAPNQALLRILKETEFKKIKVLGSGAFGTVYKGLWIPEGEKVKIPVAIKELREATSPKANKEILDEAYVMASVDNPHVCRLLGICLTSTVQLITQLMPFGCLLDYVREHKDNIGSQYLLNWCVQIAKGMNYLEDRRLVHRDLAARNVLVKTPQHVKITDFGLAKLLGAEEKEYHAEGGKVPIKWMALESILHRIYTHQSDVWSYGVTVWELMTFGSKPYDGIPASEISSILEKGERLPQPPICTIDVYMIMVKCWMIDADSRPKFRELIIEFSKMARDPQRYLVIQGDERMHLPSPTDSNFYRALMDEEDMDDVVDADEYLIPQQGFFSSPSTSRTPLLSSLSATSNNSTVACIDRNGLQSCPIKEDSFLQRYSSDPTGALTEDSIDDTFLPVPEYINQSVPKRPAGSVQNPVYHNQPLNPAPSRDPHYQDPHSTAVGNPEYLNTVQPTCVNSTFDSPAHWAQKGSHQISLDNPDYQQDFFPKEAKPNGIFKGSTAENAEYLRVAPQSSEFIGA

| pIC50 | Structure (SMILES) |
| --- | --- |
| > 9.00 | COc1cc2c(cc1Nc1ncc(C)c(Nc3ccc4nccnc4c3P(C)(C)=O)n1)-c1cnn(C)c1CCN2C(C)C [US20240034743, Compound 85] |
| > 9.00 | COc1cc2c(cc1Nc1ncc(Br)c(Nc3ccc4nccnc4c3P(C)(C)=O)n1)-c1cnn(C)c1CCN2C1CC2(C1)CN(C)C2 [US20240034743, Compound 89] |
| < 6.00 | COc1cc2c(cc1Nc1ncc(Br)c(Nc3ccc4nccnc4c3C(N)=O)n1)-c1cnn(C)c1CCN2C(C)C [US20240034743, Compound 115] |
| > 9.00 | COc1cc2c(cc1Nc1ncc(Br)c(Nc3ccc4nccnc4c3NS(C)(=O)=O)n1)-c1cnn(C)c1CCN2CC(C)C [US20240034743, Compound 133] |
| > 9.00 | CCN1CCc2c(cnn2C)-c2cc(Nc3ncc(Br)c(Nc4ccc5nccnc5c4NS(C)(=O)=O)n3)c(OC)cc21 [US20240034743, Compound 139] |

Continued, compound first:

| Structure (SMILES) | pIC50 |
| --- | --- |
| COc1cc2c(cc1Nc1ncc(Cl)c(Nc3ccc4nccnc4c3P(C)(C)=O)n1)-c1cnn(C)c1CCN2C [US20240034743, Compound 13] | > 9.00 |
| COc1cc2c(cc1Nc1ncc(Br)c(Nc3ccccc3P(C)(C)=O)n1)-c1cnn(C)c1CCN2C1CN(C)C1 [US20240034743, Compound 59] | > 9.00 |
| COc1cc2c(cc1Nc1ncc(Br)c(Nc3ccc4nccnc4c3P(C)(C)=O)n1)-c1cnn(C)c1CCN2C1CN(C(C)C)C1 [US20240034743, Compound 63] | > 9.00 |
| COc1cc2c(cc1Nc1ncc(Br)c(Nc3ccc4nccnc4c3P(C)(C)=O)n1)-c1cnn(C)c1CCN2C1CN(CC2CC2)C1 [US20240034743, Compound 70] | > 9.00 |
| COc1cc2c(cc1Nc1ncc(Br)c(Nc3ccc4nccnc4c3P(C)(C)=O)n1)-c1cnn(C)c1CCN2C1CC1 [US20240034743, Compound 74] | > 9.00 |
| COc1cc2c(cc1Nc1ncc(Br)c(Nc3ccc4nccnc4c3P(C)(C)=S)n1)-c1cnn(C)c1CCN2C1CC2(C1)CN(C)C2 [US20240034743, Compound 93] | > 9.00 |
| COc1cc2c(cc1Nc1ncc(Br)c(Nc3ccc4nccnc4c3NS(C)(=O)=O)n1)-c1cnn(C)c1CCN2 [US20240034743, Compound 114] | > 9.00 |

target: Epidermal growth factor receptor [L858R,T790M,C797S] (Homo sapiens, UniProt P00533, C797S/L858R/T790M); experiment: Not found
Source text: Not found

Sequence of Epidermal growth factor receptor [L858R,T790M,C797S] (P00533 25-1210 T790M/C797S/L858R limits assumed): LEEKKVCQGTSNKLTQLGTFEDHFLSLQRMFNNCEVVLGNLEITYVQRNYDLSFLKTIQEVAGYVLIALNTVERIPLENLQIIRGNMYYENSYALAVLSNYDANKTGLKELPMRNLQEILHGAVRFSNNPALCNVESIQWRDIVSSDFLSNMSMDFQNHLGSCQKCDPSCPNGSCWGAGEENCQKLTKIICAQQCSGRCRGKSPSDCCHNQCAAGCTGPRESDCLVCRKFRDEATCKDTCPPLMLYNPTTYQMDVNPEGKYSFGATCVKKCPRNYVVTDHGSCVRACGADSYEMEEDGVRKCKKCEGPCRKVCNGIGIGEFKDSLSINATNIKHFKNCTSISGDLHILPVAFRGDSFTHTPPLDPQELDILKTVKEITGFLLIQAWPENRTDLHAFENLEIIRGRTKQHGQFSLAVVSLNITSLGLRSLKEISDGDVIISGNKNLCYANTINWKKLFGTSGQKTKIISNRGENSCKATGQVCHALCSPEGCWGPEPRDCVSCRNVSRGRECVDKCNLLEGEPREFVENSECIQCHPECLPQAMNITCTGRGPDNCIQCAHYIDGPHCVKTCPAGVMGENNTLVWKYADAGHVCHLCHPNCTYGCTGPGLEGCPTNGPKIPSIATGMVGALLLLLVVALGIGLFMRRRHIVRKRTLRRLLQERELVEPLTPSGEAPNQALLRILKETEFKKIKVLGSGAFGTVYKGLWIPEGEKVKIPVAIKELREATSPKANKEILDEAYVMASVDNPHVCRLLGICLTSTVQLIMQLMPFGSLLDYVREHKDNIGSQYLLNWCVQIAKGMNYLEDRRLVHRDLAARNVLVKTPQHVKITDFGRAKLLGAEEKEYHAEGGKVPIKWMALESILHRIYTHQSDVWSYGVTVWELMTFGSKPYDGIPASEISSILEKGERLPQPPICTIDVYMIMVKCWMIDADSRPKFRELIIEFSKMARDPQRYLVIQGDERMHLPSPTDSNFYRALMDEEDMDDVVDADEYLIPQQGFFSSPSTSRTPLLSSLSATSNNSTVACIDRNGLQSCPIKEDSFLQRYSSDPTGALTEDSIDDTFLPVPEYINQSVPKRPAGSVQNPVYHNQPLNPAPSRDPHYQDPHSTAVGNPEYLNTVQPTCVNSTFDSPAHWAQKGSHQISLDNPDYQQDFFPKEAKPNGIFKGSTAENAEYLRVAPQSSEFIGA

| pIC50 | Structure (SMILES) |
| --- | --- |
| > 9.00 | COc1nc2c(cc1Nc1ncc(Br)c(Nc3ccccc3P(C)(C)=O)n1)-c1cnn(C)c1CCN2C [US20240034743, Compound 79] |
| > 9.00 | COc1cc2c(cc1Nc1ncc(Br)c(Nc3ccc4nccnc4c3P(C)(C)=O)n1)-c1cnn(C)c1CCN2C1CCCN(C)C1 (stereo not given) [US20240034743, Compound 84] |
| > 9.00 | COc1cc2c(cc1Nc1ncc(Br)c(Nc3ccc4nccnc4c3P(C)(C)=O)n1)-c1cnn(C)c1CCN2C1CCOCC1 [US20240034743, Compound 88] |
| > 9.00 | COc1cc2c(cc1Nc1ncc(Br)c(Nc3ccc4nccnc4c3P(C)(C)=O)n1)-c1cnn(C)c1CCN2C1CC2(C1)CN(C(C)C)C2 [US20240034743, Compound 90] |
| < 6.00 | COc1cc2c(cc1Nc1ncc(Br)c(Nc3ccccc3N(C(C)C)S(C)(=O)=O)n1)-c1cnn(C)c1CCN2C(C)C [US20240034743, Compound 124] |
| < 6.00 | CNS(=O)(=O)c1ccccc1Nc1nc(Nc2cc3c(cc2OC)N(C(C)C)CCc2c-3cnn2C)ncc1Br [US20240034743, Compound 127] |
| > 9.00 | COc1cc2c(cc1Nc1ncc(Br)c(Nc3cccc4c3NS(=O)(=O)C4)n1)-c1cnn(C)c1CCN2C(C)C [US20240034743, Compound 132] |

The remaining lines, values behind:

| Structure (SMILES) | pIC50 |
| --- | --- |
| COc1cc2c(cc1Nc1ncc(Br)c(Nc3ccc4nccnc4c3P(C)(C)=O)n1)-c1cnn(C)c1CCN2C [US20240034743, Compound 1] | > 9.00 |
| COc1cc2c(cc1Nc1ncc(Br)c(Nc3ccc4nccnc4c3P(C)(C)=O)n1)-c1cnn(C)c1CN(C)C2=O [US20240034743, Compound 9] | > 9.00 |
| COc1cc2c(cc1Nc1ncc(Br)c(Nc3ccc4nccnc4c3P(C)(C)=O)n1)-c1cnn(C)c1CCN2C(C)=O [US20240034743, Compound 15] | > 9.00 |
| COc1cc2c(cc1Nc1ncc(C(F)(F)F)c(Nc3ccccc3P(C)(C)=O)n1)-c1cnn(C)c1CCN2C [US20240034743, Compound 26] | > 9.00 |
| COc1cc2c(cc1Nc1ncc(Br)c(Nc3ccccc3P(C)(C)=O)n1)-c1ccnn1CCN2C [US20240034743, Compound 29] | > 9.00 |
| COc1cc2c(cc1Nc1ncc(Br)c(Nc3ccccc3NS(C)(=O)=O)n1)-c1cnn(C)c1CCN2C [US20240034743, Compound 32] | > 9.00 |
| COc1cc2c(cc1Nc1ncc(Br)c(Nc3ccccc3P(C)(C)=O)n1)-c1cnn(C)c1CCC2 [US20240034743, Compound 38] | > 9.00 |
| CCn1ncc2c1CCN(C)c1cc(OC)c(Nc3ncc(Br)c(Nc4ccccc4P(C)(C)=O)n3)cc1-2 [US20240034743, Compound 39] | > 9.00 |
| COc1cc2c(cc1Nc1ncc(Br)c(Nc3ccccc3P(C)(C)=O)n1)-c1cnn(C)c1CC=C2 [US20240034743, Compound 40] | > 9.00 |
| COc1cc2c(cc1Nc1ncc(Br)c(Nc3ccccc3P(C)(C)=O)n1)-c1cnn(C)c1COC2 [US20240034743, Compound 46] | > 9.00 |
| COc1cc2c(cc1Nc1ncc(Br)c(Nc3ccccc3P(C)(C)=O)n1)-c1cnnn1CCN2C [US20240034743, Compound 48] | > 9.00 |
| COc1cc2c(cc1Nc1ncc(Br)c(Nc3ccccc3P(C)(C)=O)n1)-c1cnn(C)c1CNC2 [US20240034743, Compound 49] | > 9.00 |
| COc1cc2c(cc1Nc1ncc(Br)c(Nc3ccccc3P(C)(C)=O)n1)-c1cnn(C)c1CCC2N (stereo not given) [US20240034743, Compound 50] | > 9.00 |
| COc1nc2c(cc1Nc1ncc(Br)c(Nc3ccccc3P(C)(C)=O)n1)-c1cnn(C)c1CCN2 [US20240034743, Compound 51] | > 9.00 |
| COc1cc2c(cc1Nc1ncc(Br)c(Nc3ccccc3P(C)(C)=O)n1)-c1cnc(C)n1CCN2C [US20240034743, Compound 55] | > 9.00 |
| COc1cc2c(cc1Nc1nc(Nc3ccccc3P(C)(C)=O)c3sccc3n1)-c1cnn(C)c1CCN2C [US20240034743, Compound 58] | > 9.00 |
| COc1cc2c(cc1Nc1ncc(Br)c(Nc3ccc4nccnc4c3P(C)(C)=O)n1)-c1cnn(C)c1CCN2C1CCN(C)CC1 [US20240034743, Compound 62] | > 9.00 |
| COc1cc2c(cc1Nc1ncc(Br)c(Nc3ccccc3P(C)(C)=O)n1)-c1cnn(C)c1CCN2C1COC1 [US20240034743, Compound 64] | > 9.00 |
| COc1cc2c(cc1Nc1ncc(Br)c(Nc3ccccc3P(C)(C)=O)n1)-c1cnn(C)c1CCN2C1CN(CCF)C1 [US20240034743, Compound 69] | > 9.00 |
| COc1cc2c(cc1Nc1ncc(Br)c(Nc3ccccc3P(C)(C)=O)n1)-c1cnn(C)c1CCN2CC(F)(F)F [US20240034743, Compound 73] | > 9.00 |
| COc1cc2c(cc1Nc1ncc(Br)c(Nc3ccc4nccnc4c3P(C)(C)=S)n1)-c1cnn(C)c1CCN2C1CCN(C)CC1 [US20240034743, Compound 76] | > 9.00 |
